# Experimental data from ChEMBL document CHEMBL4400575, “PROTAC Molecules for the Treatment of Autoimmune Disorders” (ACS Med Chem Lett, 2019).
# Molecular target: Protein cereblon (Homo sapiens, UniProt Q96SW2)
# Assay: Displacement of (-)-thalidomide-alexa fluor/pomalidomide-fluorescein conjugated probe from […] fused CRBN (unknown origin) measured after 60 mins by fluorescence polarization assay
# Sequence of Protein cereblon (Q96SW2 whole entry, the tested form may be a part): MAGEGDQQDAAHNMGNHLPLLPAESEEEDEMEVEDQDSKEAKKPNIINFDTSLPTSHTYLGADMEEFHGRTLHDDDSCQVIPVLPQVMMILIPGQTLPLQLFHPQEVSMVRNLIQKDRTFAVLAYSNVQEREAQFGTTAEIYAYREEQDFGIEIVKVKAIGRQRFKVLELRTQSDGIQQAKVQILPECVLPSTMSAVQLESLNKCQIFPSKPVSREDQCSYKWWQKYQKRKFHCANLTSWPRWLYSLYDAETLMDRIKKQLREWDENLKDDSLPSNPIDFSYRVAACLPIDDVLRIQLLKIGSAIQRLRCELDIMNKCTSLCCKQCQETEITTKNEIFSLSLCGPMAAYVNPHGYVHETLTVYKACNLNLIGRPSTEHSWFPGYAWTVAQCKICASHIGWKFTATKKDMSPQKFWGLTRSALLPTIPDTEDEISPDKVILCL
row,Structure (SMILES),Kd [µM]
1,CN1CCN(c2ccc(NC3CCC(=O)NC3=O)cc2)CC1 (stereo not drawn),≤ 10
2,O=C1CCC(Nc2ccccc2N2CCOCC2)C(=O)N1 (stereo not drawn),10 to 50
3,Cc1sc2c(c1C)C(c1ccc(Cl)cc1)=N[C@@H](CC(=O)NCCCCCCCCN1CCN(c3ccc(NC4CCC(=O)NC4=O)cc3)CC1)c1nnc(C)n1-2 (stereo partly drawn),≤ 10
4,CC(C)(C)OC(=O)N1CCN(c2ccc(OC3CCC(=O)NC3=O)cc2)CC1 (stereo not drawn),≤ 10
5,COc1cccc(N(C)C2CCC(=O)NC2=O)c1 (stereo not drawn),≤ 10

# Second part, the molecule after the results:
row,Kd [µM],Structure (SMILES)
1,≤ 10,CC(=O)CCc1ccc(OC2CCC(=O)NC2=O)cc1 (stereo not drawn)
2,≤ 10,N#Cc1ccc(-c2ccc(OC3CCC(=O)NC3=O)cc2)cc1 (stereo not drawn)
3,≤ 10,Cc1nnc2n1-c1ccc(-c3cnn(CCCCCCN4CCN(c5ccc(NC6CCC(=O)NC6=O)cc5)CC4)c3)cc1C(c1ccc(Cl)cc1)=NC21CC1 (stereo not drawn)
